The results in this text go back to article PMC9518283 (Journal of Enzyme Inhibition and Medicinal Chemistry, 2022).

In data set [1] the target is human AChE (hAChE; EC 3.1.1.7) (Homo sapiens, UniProt P22303). Briefly: biochemical. As to conditions: for IC50: mean of at least three experiments, read-out: IC50 hAChE ± STD; for SI (hBChE/hAChE): ratio IC50(hBChE)/IC50(hAChE). On the procedure:
(§1) For that purpose, Ellman’s colorimetric assay was used[35].
(§2) The catalytic activity of both cholinesterases was determined by standard Ellman’s method adapted for 96-well plates. All tested inhibitors were freshly prepared in 50% DMSO/50% methanol at 10 mM concentration as stock solutions and then diluted in 0.1 M phosphate buffer, pH 7.4. […] The mixture was pre-incubated at 37 °C for 15 min and subsequently substrate (acetylthiocholine iodide or butyrylthiocholine iodide) was added to the final concentration of 1000 μM. The final volume of the reaction was 100 μL. The catalytic activity was evaluated as the amount of product (%) formed by enzyme after 10 min of incubation at 37 °C. The IC50 values from three independent experiments for each inhibitor concentration in triplicate were calculated using non-linear regression curve analysis in Prism version 7 Software (GraphPad Software Inc., San Diego, CA).

Data set [2] has as its target human butyrylcholinesterase (hBChE; EC 3.1.1.8) (Homo sapiens, UniProt P06276). Description: biochemical. As to conditions: mean of at least three experiments; read-out: IC50 hBChE ± STD. Here is the method: as §1, §2
A further data set concerns the target T1, hMAO-A (Homo sapiens, UniProt P21397).
T1 construct: purchased Sigma-Aldrich (St. Louis, MO, USA)
T1 sequence (P21397 1-527): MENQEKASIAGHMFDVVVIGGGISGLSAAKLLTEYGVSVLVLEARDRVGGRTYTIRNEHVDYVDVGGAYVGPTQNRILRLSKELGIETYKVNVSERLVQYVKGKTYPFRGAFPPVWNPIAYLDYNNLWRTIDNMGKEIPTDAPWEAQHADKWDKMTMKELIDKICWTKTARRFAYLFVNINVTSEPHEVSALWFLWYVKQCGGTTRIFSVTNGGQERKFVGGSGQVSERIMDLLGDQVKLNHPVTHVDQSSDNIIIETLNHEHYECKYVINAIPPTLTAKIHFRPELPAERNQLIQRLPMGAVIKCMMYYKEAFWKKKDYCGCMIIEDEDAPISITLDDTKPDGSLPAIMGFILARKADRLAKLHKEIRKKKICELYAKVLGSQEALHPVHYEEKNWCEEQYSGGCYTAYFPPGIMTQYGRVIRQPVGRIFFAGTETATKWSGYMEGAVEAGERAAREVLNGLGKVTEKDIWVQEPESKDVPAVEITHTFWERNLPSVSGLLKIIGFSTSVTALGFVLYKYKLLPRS
Description: hMAO-A inhibition, kynuramine substrate, HPLC-MS. It is filed as biochemical. As to conditions: residual enzyme activity; for % of MAO-A activity (1 µM): compound at 1 µM; for % of MAO-A activity (10 µM): compound at 10 µM. Here is the method:
(§3) The hMAO-A and hMAO-B enzymes were purchased from Sigma-Aldrich (St. Louis, MO, USA). […] The mixture was pre-incubated at 37 °C for 5 min and subsequently substrate kynuramine was added to the final concentration of 60 µM in the case of hMAO-A and 30 µM in the case of hMAO-B. The final volume of reaction mixture was 0.1 mL. The whole reaction mixture was incubated at 37 °C for 30 min. The reaction was stopped by the addition of 200 µL acetonitrile/methanol mixture (ratio 1:1) and cooling down to 0 °C. […] Eluents: (A) 0.1% formic acid in water; (B) 0.1% formic acid in acetonitrile.

The target of a further data set is T2, hMAO-B (Homo sapiens, UniProt P27338).
T2 construct: purchased Sigma-Aldrich (St. Louis, MO, USA)
T2 sequence (P27338 1-520): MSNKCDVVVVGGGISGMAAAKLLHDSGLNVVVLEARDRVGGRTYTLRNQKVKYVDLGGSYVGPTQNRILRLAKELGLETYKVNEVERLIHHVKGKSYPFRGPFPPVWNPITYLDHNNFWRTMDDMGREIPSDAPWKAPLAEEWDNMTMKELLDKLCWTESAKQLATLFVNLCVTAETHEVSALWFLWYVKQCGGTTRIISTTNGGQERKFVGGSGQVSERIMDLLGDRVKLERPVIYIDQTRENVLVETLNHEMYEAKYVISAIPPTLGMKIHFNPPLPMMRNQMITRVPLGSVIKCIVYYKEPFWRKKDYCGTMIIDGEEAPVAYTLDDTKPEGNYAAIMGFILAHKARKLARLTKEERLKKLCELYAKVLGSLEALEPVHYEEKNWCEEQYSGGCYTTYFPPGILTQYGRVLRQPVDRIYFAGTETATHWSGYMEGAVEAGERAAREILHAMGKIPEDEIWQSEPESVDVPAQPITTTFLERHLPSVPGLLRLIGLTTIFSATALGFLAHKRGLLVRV
Description: biochemical. As to conditions: for IC50: IC50 hMAO-B ± STD, mean of at least three experiments; for % of MAO-B activity (1 µM) / % of MAO-B activity (10 µM): residual enzyme activity; for % of MAO-B activity (1 µM): compound at 1 µM; for % of MAO-B activity (10 µM): compound at 10 µM. On the procedure:
as §3

The next data set can be described thus: in vitro. As to conditions: PAMPA, pH 7.4.
Data set [3] relates to human hepatocellular carcinoma cell line (HepG2). Briefly: MTT cytotoxicity on HepG2. As to conditions: HepG2, 24 h, read-out: IC50 ± SEM HepG2.
Description: (§4) Briefly, HepG2 and SH-SY5Y cells were seeded into 96-well plates in 100 µL and density of 15 × 10^3 and 20 × 10^3 cells per well, respectively. Cells were allowed to attach overnight. The stock solutions of tested compounds were prepared in DMSO (Sigma-Aldrich), further serially diluted in cultivation medium and added to the cells in 96-well culture plate. […] After 24 h was the medium aspirated and 100 µL MTT solution (0.5 mg/mL) in serum free DMEM medium was added to each well. The cells were then incubated for one hour. The medium was then aspirated and purple crystals of MTT formazan were dissolved in 100 µL DMSO under shaking. The absorbance was measured with a multimode microplate reader Spark® (Tecan Trading AG, Männedorf, Switzerland) at test wavelength of 570 nm.
(§5) The data were obtained from three independent experiments performed in triplicates. The IC50 values were expressed as a mean ± standard error of the mean (SEM).
For data set [4], the system named is human neuroblastoma cell line (SH-SY5Y). Description: MTT cytotoxicity on SH-SY5Y. As to conditions: 24 h, read-out: IC50 ± SEM SH-SY5Y.
Description: as §4, §5

Several values for one entry are separate records, joined by “and”; a condition that tells them apart may be missing. Equal entries are not always repeated.

Chain of human butyrylcholinesterase (hBChE; EC 3.1.1.8) (P06276 29-602): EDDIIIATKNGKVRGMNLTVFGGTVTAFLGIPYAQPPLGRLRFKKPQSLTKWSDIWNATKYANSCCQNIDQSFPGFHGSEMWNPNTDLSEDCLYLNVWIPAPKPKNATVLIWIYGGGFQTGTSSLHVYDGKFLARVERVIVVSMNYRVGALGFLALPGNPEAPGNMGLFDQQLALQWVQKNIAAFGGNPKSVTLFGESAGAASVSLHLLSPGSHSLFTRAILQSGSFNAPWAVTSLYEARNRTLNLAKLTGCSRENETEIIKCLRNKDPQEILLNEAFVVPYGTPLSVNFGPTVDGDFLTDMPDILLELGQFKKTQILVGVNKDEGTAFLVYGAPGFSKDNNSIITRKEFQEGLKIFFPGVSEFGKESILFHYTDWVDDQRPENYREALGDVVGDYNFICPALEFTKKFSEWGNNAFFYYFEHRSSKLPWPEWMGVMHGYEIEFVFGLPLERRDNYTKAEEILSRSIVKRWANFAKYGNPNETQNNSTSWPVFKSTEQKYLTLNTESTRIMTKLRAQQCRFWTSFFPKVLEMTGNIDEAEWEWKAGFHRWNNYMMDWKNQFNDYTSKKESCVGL
Chain of human AChE (hAChE; EC 3.1.1.7) (P22303 32-614): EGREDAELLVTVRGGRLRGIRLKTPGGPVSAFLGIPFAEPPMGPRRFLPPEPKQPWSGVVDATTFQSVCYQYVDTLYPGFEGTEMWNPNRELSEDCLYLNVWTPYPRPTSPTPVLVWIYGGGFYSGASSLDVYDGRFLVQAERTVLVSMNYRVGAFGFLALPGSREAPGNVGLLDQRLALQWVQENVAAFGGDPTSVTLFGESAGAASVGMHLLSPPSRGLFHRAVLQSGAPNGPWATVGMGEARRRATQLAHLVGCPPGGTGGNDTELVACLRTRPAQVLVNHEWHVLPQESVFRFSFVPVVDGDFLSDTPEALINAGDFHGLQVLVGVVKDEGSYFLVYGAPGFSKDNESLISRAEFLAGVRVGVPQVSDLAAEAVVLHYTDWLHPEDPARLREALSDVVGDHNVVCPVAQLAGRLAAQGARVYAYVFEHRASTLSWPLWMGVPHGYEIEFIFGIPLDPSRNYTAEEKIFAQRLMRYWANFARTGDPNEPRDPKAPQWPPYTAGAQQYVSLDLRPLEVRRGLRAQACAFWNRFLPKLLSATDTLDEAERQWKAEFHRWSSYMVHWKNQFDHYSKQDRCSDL
Description for in vitro: The PAMPA was used as the non-cell-based in vitro assay to predict BBB penetration carried out in a coated 96-well membrane filter[44]^,[52]. […] Tested compounds were dissolved first in DMSO and then diluted with PBS (pH 7.4) to achieve the final concentration of 100 µM in the donor well. […] An aliquot of 300 µL of the donor solution (VD) was added to the donor wells and the donor filter plate was carefully put on the acceptor plate so that coated membrane was "in touch" with both donor solution and acceptor buffer. […] The concentration of the tested compound in both the donor and acceptor wells was assessed after 3, 4, 5, and 6 h of incubation, respectively, in quadruplicate using a multi-plate reader Spark (Tecan GmbH, Grödig, Austria) at the maximum absorption wavelength of each compound. Also prepared were solutions at the theoretical equilibrium of the given compound (i.e. the theoretical concentration if the donor and acceptor compartment were simply combined).

Take `C=CCNc1c2c(nc3ccc(Oc4ccccc4)cc13)CCCC2.Cl` [Compound 7, 7-Phenoxy-N-(prop-2-en-1-yl)-1,2,3,4-tetrahydroacridin-9-amine hydrochloride]: in data set [1], the IC50 was determined as 1120 ± 21 nM and the “SI (hBChE/hAChE)” value worked out at 2.47. Further, the IC50 in data set [2] is 2770 ± 133 nM. Further, on hMAO-A, the “% of MAO-A activity (1 µM)” value was 99% and the “% of MAO-A activity (10 µM)” value stood at 90%. For the same molecule, on hMAO-B, the IC50 worked out at 163 nM, the “% of MAO-B activity (1 µM)” value is given as 5% and the “% of MAO-B activity (10 µM)” value stood at 2%. The molecule also yielded a Papp at 100 µM in “in vitro” of 4.22 ± 0.17 ×10⁻⁶ cm/s. In addition, the 50% inhibitory concentration (IC50) in data set [3] turned out to be 10300 ± 830 nM. Further, the half-inhibitory concentration (IC50) in data set [4] is 12400 ± 440 nM.

Take `C#CCNc1c2c(nc3ccc(Oc4ccccc4)cc13)CCCC2.Cl` [Compound 15, 7-Phenoxy-N-(prop-2-yn-1-yl)-1,2,3,4-tetrahydroacridin-9-amine hydrochloride]: in data set [1], the IC50 turned out to be 1470 ± 24 nM and the “SI (hBChE/hAChE)” value is listed as 0.45. Also, in data set [2], the IC50 turned out to be 659 ± 77 nM. Moreover, on hMAO-A, the “% of MAO-A activity (1 µM)” value amounted to 41% and the “% of MAO-A activity (10 µM)” value is on record as 51%. Further, at hMAO-B, the 50% inhibitory concentration (IC50) was 40 nM and 40.4 nM; the “% of MAO-B activity (1 µM)” value was determined as 8%; the “% of MAO-B activity (10 µM)” value is recorded as 3%. Also, the Papp at 100 µM in the data set “in vitro” came out at 10.4 ± 0.94 ×10⁻⁶ cm/s. Further, the IC50 in data set [3] came to 16900 ± 770 nM. Also, the half-maximal inhibitory concentration (IC50) in data set [4] was 23400 ± 2550 nM.

In the case of `C#CCN(CC#C)CCCNc1c2c(nc3ccccc13)CCCC2.Cl.Cl` [Compound 20, N,N-Di(prop-2-yn-1-yl)-N'-(1,2,3,4-tetrahydroacridin-9-yl)propane-1,3-diamine dihydrochloride], in data set [1], the IC50 turned out to be 198 ± 24 nM and the “SI (hBChE/hAChE)” value is recorded as 0.39. In addition, the IC50 in data set [2] is 78 ± 3 nM. On hMAO-A, the “% of MAO-A activity (1 µM)” value is given as 78% and the “% of MAO-A activity (10 µM)” value amounted to 33%. Also, on hMAO-B, the “% of MAO-B activity (1 µM)” value is listed as 148% and the “% of MAO-B activity (10 µM)” value was determined as 96%. Besides, in “in vitro”, the apparent permeability coefficient (Papp) at 100 µM is 12.2 ± 1.12 ×10⁻⁶ cm/s. Moreover, the IC50 in data set [3] came out at 38300 ± 1750 nM. Moreover, in data set [4], the IC50 turned out to be 31400 ± 1550 nM.

Turning to `C#CCNCCCNc1c2c(nc3ccccc13)CCCC2.Cl.Cl` [Compound 21, N-(Prop-2-yn-1-yl)-N'-(1,2,3,4-tetrahydroacridin-9-yl)propane-1,3-diamine dihydrochloride], in data set [1], the half-inhibitory concentration (IC50) was determined as 95 ± 1 nM and the “SI (hBChE/hAChE)” value is given as 0.98. The half-inhibitory concentration (IC50) in data set [2] amounted to 93 ± 3 nM. Moreover, on hMAO-A, the “% of MAO-A activity (1 µM)” value is 47% and the “% of MAO-A activity (10 µM)” value amounted to 54%. At hMAO-B, the “% of MAO-B activity (1 µM)” value turned out to be 88% and the “% of MAO-B activity (10 µM)” value is on record as 90%. For the same molecule, the Papp at 100 µM in “in vitro” turned out to be 6.07 ± 0.53 ×10⁻⁶ cm/s. Besides, in data set [3], the IC50 turned out to be 25900 ± 730 nM. Moreover, in data set [4], the IC50 amounted to 38800 ± 750 nM.

`C#CCNCCCNc1c2c(nc3ccc(Oc4ccccc4)cc13)CCCC2.Cl.Cl` [Compound 26, N-(7-Phenoxy-1,2,3,4-tetrahydroacridin-9-yl)-N'-(prop-2-yn-1-yl)-propane-1,3-diamine dihydrochloride]: in data set [1], the IC50 worked out at 1040 ± 40 nM and the “SI (hBChE/hAChE)” value is recorded as 1.02. Moreover, the IC50 in data set [2] is 1060 ± 62 nM. For the same molecule, on hMAO-A, the “% of MAO-A activity (1 µM)” value stood at 88% and the “% of MAO-A activity (10 µM)” value came out at 79%. At hMAO-B, the “% of MAO-B activity (1 µM)” value is recorded as 14% and the “% of MAO-B activity (10 µM)” value worked out at 4%.

Turning to `C=CCNc1ccnc2cc(Cl)ccc12.Cl` [Compound 27, 7-Chloro-N-(prop-2-en-1-yl)quinolin-4-amine hydrochloride], in data set [1], the concentration for half-maximal inhibition (IC50) came to 10700 ± 406 nM and the “SI (hBChE/hAChE)” value was determined as 6.18. Further, in data set [2], the IC50 stood at 66300 ± 2070 nM. For the same molecule, on hMAO-A, the “% of MAO-A activity (1 µM)” value was 54% and the “% of MAO-A activity (10 µM)” value is listed as 19%. Also, on hMAO-B, the “% of MAO-B activity (1 µM)” value is on record as 150% and the “% of MAO-B activity (10 µM)” value is 127%.
